Values joined by “and” are separate entries in the source; they are usually repeats but may differ in a detail not shown here. Equal values may be shown once.
Key:
[1] = tested on: Daudi cells; assay: Intraperitoneal lavage model: CFSE-labelled Daudi cells in SCID mice; type: in vivo; settings: I-17 1, 10, 30 mg/kg + IVIG 10 mg/mouse sub-Q, 16-18 hours (FIG. 9)
Experimental: On day 0 animals were weighed and randomized. Mice were assigned to different groups and treated as described below. CFSE labelled Daudi cells were prepared as follows:
• Reagents used: PBS (Sterile) • Quenching Buffer PBS+10% FBS • RPMI (no additives) no P/S; no FBS • Invitrogen—CellTrace CFSE Cell Proliferation Kit, for Flow Cytometry (Cat#C34570) • Warm the sterile PBS and all other media to 37 degree Celsius before use for all of the following procedures listed below. […]
After 16-18 hours the mice were sacrificed via CO2 asphyxiation and had their peritoneal cavity flushed with 5 mls of PBS with 1% BSA. Samples were processed and analyzed using IP Lavage Processing is described in 00765. Samples were evaluated for tumor cell counts. […]

[2] = tested on: Daudi cells; assay: Ternary binding assay: recruitment of PE-labeled human IgG1k to Daudi cells (flow cytometry, MFI); type: cell-based; settings: duplicate columns
In short: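 Daudi cells, 100,000 per well, were suspended in flow buffer (1% BSA, 0.5 mM EDTA, PBS) containing 11.1 ug/mL PE-labeled human IgG1k and incubated with ½-log compound dilutions (8–12 concentrations) for 30 min at 37 °C. After two washes with 0.5% Tween 20 buffer, mean fluorescence was read by flow cytometry and fitted with a four-parameter variable-slope model.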

SMILES: CCCCC[C@@H]1NC(=O)[C@H](CCCNC(=N)N)NC(=O)[C@H](C)NC(=O)CSC[C@@H](C(=O)NCCOCCOCCOCCOCCOCCOCCn2nnc3c2CCC2C(CC3)C2COC(=O)N2CCC(C(=O)NCC(=O)N[C@H](CCC(=O)N[C@H](CCC(=O)N[C@H](CCC(=O)O)C(=O)N[C@H](CCC(=O)N[C@H](CCC(=O)NCC(=O)NCC(=O)N[C@@H](CC(=O)O)C(=O)N[C@H]3CSSC[C@@H](C(=O)N[C@H](C(=O)O)[C@@H](C)O)NC(=O)[C@H](Cc4c[nH]c5ccccc45)NC(=O)[C@H](C(C)C)NC(=O)[C@H](CC(C)C)NC(=O)[C@H](CCC(=O)O)NC(=O)CNC(=O)[C@H](CC(C)C)NC(=O)[C@H](Cc4c[nH]cn4)NC(=O)[C@H](Cc4c[nH]c5ccccc45)NC(=O)[C@H](C)NC3=O)C(=O)O)C(=O)O)C(=O)O)C(=O)O)CC2)NC(=O)[C@H](CC(=O)O)NC(=O)[C@H](CCCCC)NC(=O)[C@H](Cc2ccc(-c3ccccc3)cc2)NC(=O)[C@H](CC(C)C)NC(=O)[C@H](C(C)C)NC(=O)CNC(=O)[C@H](CC(=O)O)NC(=O)[C@H](Cc2c[nH]cn2)NC(=O)[C@H](Cc2ccc(O)cc2)NC1=O (stereo partly drawn) [I-17]
- number of CD38 expressing Daudi cells in intraperitoneal cavity [1]: can effectively reduce the number of target cells
- MFI, recruitment of PE-labeled human IgG1k to Daudi cells ([2]; compound 0.03 nM): 2516 and 2391
- MFI, recruitment of PE-labeled human IgG1k to Daudi cells ([2]; compound 0.1 nM): 2322 and 2622
- MFI, recruitment of PE-labeled human IgG1k to Daudi cells ([2]; compound 0.3 nM): 2387 and 2457
- MFI, recruitment of PE-labeled human IgG1k to Daudi cells ([2]; compound 1 nM): 3272 and 2451
- MFI, recruitment of PE-labeled human IgG1k to Daudi cells ([2]; compound 3 nM): 2516 and 2680
- MFI, recruitment of PE-labeled human IgG1k to Daudi cells ([2]; compound 10 nM): 7119 and 4086
- MFI, recruitment of PE-labeled human IgG1k to Daudi cells ([2]; compound 30 nM): 3869 and 5244
- MFI, recruitment of PE-labeled human IgG1k to Daudi cells ([2]; compound 100 nM): 7575 and 6333
- MFI, recruitment of PE-labeled human IgG1k to Daudi cells ([2]; compound 300 nM): 7514 and 8562
- MFI, recruitment of PE-labeled human IgG1k to Daudi cells ([2]; compound 1000 nM): 10015 and 9697
- MFI, recruitment of PE-labeled human IgG1k to Daudi cells ([2]; compound 3000 nM): 9069 and 9922
